Results: the Deep4Chem optical property database

Assay: solvent given as SMILES

COc1ccc(C#Cc2ccc(C#N)cc2)cc1OC
emission maximum (in C1COCCO1): 400 nm
emission maximum (in CC#N): 451 nm
emission maximum (in CCCCCC): 346 nm
emission maximum (in CCCCCCC): 347 nm
emission maximum (in CCCO): 425 nm
emission maximum (in CCOC(C)=O): 408 nm
emission maximum (in CS(C)=O): 462 nm
emission maximum (in ClC(Cl)Cl): 404 nm
emission maximum (in ClCCl): 417 nm

COc1ccc(/C=C/C2=CC(/C=C/c3ccc(OC)cc3)=[O+][B-](OC(C)=O)(OC(C)=O)O2)cc1
emission maximum (in C1CCOC1): 518 nm
emission maximum (in CC#N): 541 nm
emission maximum (in CC(C)=O): 531 nm
emission maximum (in CS(C)=O): 548 nm
emission maximum (in Cc1ccccc1): 510 nm
emission maximum (in ClC(Cl)Cl): 529 nm
emission maximum (in ClCCl): 535 nm

O=C1CCCC2=C1C(c1ccccc1)c1c(c3ccccc3oc1=O)N2 (stereo not given)
emission maximum (in CS(C)=O): 440 nm

Cc1ccc(C2=Nc3cccc4[n+]3[B-](F)(O2)OC(c2ccc(C)cc2)=N4)cc1
emission maximum (in ClCCl): 457 nm

FC(F)(F)c1ccc(-c2nc(-c3ccc(C(F)(F)F)cc3)n3ccccc23)cc1
emission maximum (in ClC(Cl)Cl): 480 nm

CCCn1c2cccc3c2[c+]2c4c1cccc4n(CCC)c1cccc(c12)n3CCC
emission maximum (in CC#N): 557 nm

C(#Cc1cccc(C#Cc2ccc(-n3c4ccccc4c4ccccc43)cc2)c1)c1ccc(-n2c3ccccc3c3ccccc32)cc1
emission maximum (in CC#N): 425 nm
emission maximum (in CCCCC): 366 nm
emission maximum (in CO): 412 nm
emission maximum (in Cc1ccccc1): 374 nm
emission maximum (in ClC(Cl)Cl): 368 nm
emission maximum (in ClCCl): 394 nm

CCCCCCN1C(=O)c2cccc3c(-c4ccc(-c5cc(-c6ccc(C)cc6)n(-c6ccccc6)n5)s4)ccc(c23)C1=O
emission maximum (in ClCCl): 521 nm

Cc1ccc2c(c1)C1(c3ccccc3-c3ccccc31)c1cc(C)ccc1N2c1ccc2c(c1)Sc1ccccc1P2(=O)c1ccccc1 (stereo not given)
emission maximum (in Cc1ccccc1): 454.61 nm

Cc1cc(-c2nc3c4ccccc4c4ccccc4c3n2-c2ccc(C(C)(C)C)cc2)ccc1-c1ccc(-c2c(-c3ccccc3)nc3ccccn23)cc1
emission maximum (in ClCCl): 416 nm

Cc1cc2cc(C)c3c4ccccc4[nH]c3c2o1
emission maximum (in ClCCl): 338 nm

CC(C)(C)c1ccc(N2c3ccc(C(C)(C)C)cc3B3c4cc(C(C)(C)C)ccc4N(c4ccc(C(C)(C)C)cc4)c4cc(-n5c6ccc(C(C)(C)C)cc6c6cc(C(C)(C)C)ccc65)cc2c43)cc1
emission maximum (in Cc1ccccc1): 470 nm

Nc1ccc(N2C(=O)c3ccc4c5ccc6c7c(ccc(c8ccc(c3c48)C2=O)c75)C(=O)N(c2ccc(O)cc2)C6=O)cc1
emission maximum (in CN(C)C=O): 537 nm

CCCCCCCCn1c(=O)c2cc3cc4cc5c(=O)n(CCCCCCCC)c(=O)c5cc4c(C#Cc4ccc(N(c5ccccc5)c5ccccc5)cc4)c3cc2c1=O
emission maximum (in ClC(Cl)Cl): 611 nm

Cc1cc(C)c(-c2c3ccccc3c3ccc4cc5c(-c6c(C)cc(C)cc6C)c6ccccc6c6ccc7cc2c3c4c7c56)c(C)c1
emission maximum (in ClCCl): 617 nm

Cn1c2nc(=O)[nH]c(=O)c-2nc2ccccc21
emission maximum (in CC1CCCO1): 489 nm

CCn1c2ccccc2c2cc(/C=C/c3cc(/C=C/c4ccc5c(c4)c4ccccc4n5CC)ncn3)ccc21
emission maximum (in C1CCOC1): 463 nm
emission maximum (in CCOC(C)=O): 460 nm
emission maximum (in CN(C)C=O): 500 nm
emission maximum (in Cc1ccccc1): 440 nm
emission maximum (in ClCCl): 492 nm

c1ccc(-c2nc(-c3ccccc3)nc(-c3ccc(-n4c5ccccc5c5c6c(ccc54)-c4ccccc4C6(c4ccccc4)c4ccccc4)cc3)n2)cc1
emission maximum (in C1CCOC1): 504.15 nm
emission maximum (in CCCCCC): 407.03 nm
emission maximum (in Cc1ccccc1): 446 nm
emission maximum (in ClCCl): 530.05 nm
emission maximum (in O=P(c1ccccc1)(c1ccccc1)c1ccccc1Oc1ccccc1P(=O)(c1ccccc1)c1ccccc1): 475 nm

C(#Cc1ccncc1)C(C#Cc1ccncc1)=Cc1ccc(C=C(C#Cc2ccncc2)C#Cc2ccncc2)cc1
emission maximum (in ClC(Cl)Cl): 472 nm

O=P1(c2ccccc2)c2cccc3ccc4ccc1n4c23 (stereo not given)
emission maximum (in ClCCl): 496 nm

c1ccc2cc3c(cc2c1)oc1c2oc4cc5ccccc5cc4c2c2ccccc2c31
emission maximum (in C1CCOC1): 399 nm

c1ccc(-c2nc(-c3ccccc3)nc(-c3ccc(-n4c5ccccc5c5cc(-c6ccc7oc8ccccc8c7c6)ccc54)cc3)n2)cc1
emission maximum (in CCOC(C)=O): 470 nm
emission maximum (in CN(C)C=O): 526 nm
emission maximum (in Cc1ccccc1): 433 nm

CCC1=C(C)C(=O)n2c1cc1c(C)c(CCC(=O)O)c(C)n1c2=O
emission maximum (in CO): 535 nm
emission maximum (in CS(C)=O): 510 nm
emission maximum (in ClC(Cl)Cl): 490 nm
emission maximum (in c1ccccc1): 480 nm

COC(=O)C(NC(=O)OC(C)(C)C)c1ccc2oc(-c3cc(OC)ccc3OC)nc2c1 (stereo not given)
emission maximum (in CC1CCCCC1): 364 nm
emission maximum (in CC#N): 390 nm
emission maximum (in CO): 405 nm

COc1ccc(/C=C(\C)c2nc3ccccc3o2)cc1
emission maximum (in C1CCCCC1): 380 nm
emission maximum (in CO): 400 nm

c1cc2ccc3ccc4cc3c2cc1CCCCCCc1ccc2ccc3ccc-4cc3c2c1
emission maximum (in Cc1ccccc1): 376 nm

CCCCN(CCCC)c1ccc2c#cc3cc4c#cc5ccc(N(CCCC)CCCC)cc5c#cc#cc5cc(C(F)(F)F)ccc5c#cc4cc3c#cc3ccc(C(F)(F)F)cc3c#cc#cc2c1
emission maximum (in ClCCl): 544 nm
emission maximum (in c1ccccc1): 501 nm

c1ccc(C(=C(c2ccccc2)c2ccc(-c3ccc(-c4nc5c(-c6ccc(-c7ccc(C(=C(c8ccccc8)c8ccccc8)c8ccccc8)cc7)cc6)sc(-c6ccc(-c7ccc(C(=C(c8ccccc8)c8ccccc8)c8ccccc8)cc7)cc6)c5nc4-c4ccc(-c5ccc(C(=C(c6ccccc6)c6ccccc6)c6ccccc6)cc5)cc4)cc3)cc2)c2ccccc2)cc1
emission maximum (in Cc1ccccc1): 637 nm
emission maximum (in ClCCl): 647 nm

CCOC(=O)C1=CN(c2ccccc2)C=C(C(=O)OCC)C1c1ccccc1
emission maximum (in C1CCOC1): 412 nm
emission maximum (in CO): 426 nm

[O-][n+]1c(/C=C/c2cccs2)nc(N2CCOCC2)c2c1CCCC2
emission maximum (in ClCCl): 534 nm

COc1cc2cc(OC)c(C#Cc3ccc([N+](=O)[O-])cc3)cc2cc1C#Cc1ccc([N+](=O)[O-])cc1
emission maximum (in C1CCOC1): 514 nm
emission maximum (in ClC(Cl)Cl): 577 nm
emission maximum (in ClCCl): 593 nm

COc1cccc(-n2c(-c3ccc(O)cc3)nc(C)c2C)c1
emission maximum (in C1COCCO1): 368 nm
emission maximum (in CC#N): 364 nm
emission maximum (in CCCCCC): 370 nm
emission maximum (in CCCCO): 371 nm
emission maximum (in CCO): 372 nm
emission maximum (in CCOC(C)=O): 368 nm
emission maximum (in CO): 369 nm
emission maximum (in ClC(Cl)Cl): 372 nm
emission maximum (in ClCCl): 369 nm
emission maximum (in c1ccccc1): 371 nm

CCCCCCCCCCCCCCCCCCOC(=O)/C=C/C1=CC2=C(c3c(C)cc(C)cc3C)c3cc(/C=C/C(=O)OCCCCCCCCCCCCCCCCCC)cn3[B-](F)(F)[N+]2=C1
emission maximum (in ClCCl): 606 nm

Cn1c(=O)cc(C(=O)c2ccccc2)c2sc(-c3ccc(C(F)(F)F)cc3)cc21
emission maximum (in CC#N): 517 nm
emission maximum (in ClCCl): 511 nm

CN(C)c1ccc(/C=C/c2cc(/C=C/c3ccc(N(C)C)cc3)nc(N)n2)cc1
emission maximum (in Cc1ccccc1): 466 nm
emission maximum (in ClC(Cl)Cl): 511 nm

COc1ccc(NC(=O)C(C(=O)Nc2ccc(OC)cc2)C(c2cc(F)ccc2O)c2c[nH]c3ccc(OC)cc23)cc1 (stereo not given)
emission maximum (in CS(C)=O): 341 nm

N#C/C(=C\c1ccc(C#N)cc1)c1nc(-c2ccc(Cl)cc2)c(-c2ccccc2)s1
emission maximum (in CC#N): 522 nm

CN(C)c1ccc2cc(C(/C=C/c3cn(C)c4ccccc34)=C(C#N)C#N)c(=O)oc2c1
emission maximum (in C1CCOC1): 584 nm
emission maximum (in C1COCCO1): 568 nm
emission maximum (in CN(C)C=O): 539 nm
emission maximum (in CS(C)=O): 555 nm
emission maximum (in ClCCl): 583 nm

c1ccc(-c2nc(-c3c[nH]c4ccccc34)n3ccccc23)cc1
emission maximum (in C1CCCCC1): 482 nm
emission maximum (in CC#N): 506 nm
emission maximum (in CO): 500 nm
emission maximum (in ClCCl): 506 nm
emission maximum (in O): 507 nm

COc1cccc2cc(-c3ccc([N+](=O)[O-])cc3)c(=N)oc12
emission maximum (in C1CCOC1): 374 nm
emission maximum (in CC#N): 366 nm
emission maximum (in CS(C)=O): 392 nm
emission maximum (in ClC(Cl)Cl): 380 nm

CCC1(CC)c2cc(C#Cc3cc(C#Cc4ccc5c(c4)C(CC)(CC)c4cc(N(c6ccccc6)c6ccccc6)ccc4-5)c4ccc5c(C#Cc6ccc7c(c6)C(CC)(CC)c6cc(N(c8ccccc8)c8ccccc8)ccc6-7)cc(C#Cc6ccc7c(c6)C(CC)(CC)c6cc(N(c8ccccc8)c8ccccc8)ccc6-7)c6ccc3c4c65)ccc2-c2ccc(N(c3ccccc3)c3ccccc3)cc21
emission maximum (in C1CCCCC1): 524 nm
emission maximum (in C1CCOC1): 552 nm
emission maximum (in CCOC(C)=O): 545 nm
emission maximum (in CN(C)C=O): 557 nm
emission maximum (in Cc1ccccc1): 535 nm
emission maximum (in ClC(Cl)Cl): 545 nm
emission maximum (in ClCCl): 567 nm

c1ccc2cc(-c3c4ccccc4c(-c4ccc(-c5ccc(-n6c7ccccc7c7ccccc76)cc5)cc4)c4ccccc34)ccc2c1
emission maximum (in ClCCl): 427 nm

c1cc2ccc1-c1ccc(cc1)-c1ccc([se]1)-c1ccc(cc1)-c1ccc(cc1)-c1ccc([se]1)-c1ccc(cc1)-c1ccc(cc1)-c1ccc([se]1)-c1ccc(cc1)-c1ccc(cc1)-c1ccc-2[se]1
emission maximum (in C1CCOC1): 492 nm

C(#Cc1cnc(C#Cc2ccccc2)nc1)c1ccccc1
emission maximum (in C1CCCCC1): 425 nm

CCOC(=O)c1c(-c2cc3ccc(OC)cc3oc2=O)nn(-c2cccc(C)c2)c1C(=O)OCC
emission maximum (in ClCCl): 422 nm

COc1cc(/C=C/c2cc(OC)c(-c3nc(-c4ccccc4)c(-c4ccccc4)[nH]3)cc2OC)c(OC)cc1/C=C/c1cc(OC)c(-c2nc(-c3ccccc3)c(-c3ccccc3)[nH]2)cc1OC
emission maximum (in C1CCOC1): 510 nm
emission maximum (in CC#N): 515 nm
emission maximum (in CN(C)C=O): 512 nm
emission maximum (in Cc1ccccc1): 502 nm

CC(C)(C(=O)c1ccc(N2c3ccccc3Oc3ccccc32)cc1)C(=O)c1ccc(N2c3ccccc3Oc3ccccc32)cc1
emission maximum (in Cc1ccccc1): 562 nm
emission maximum (in c1ccc2c(c1)c1ccccc1n2-c1ccc(-c2ccc(-n3c4ccccc4c4ccccc43)cc2)cc1): 520.81 nm

C(#Cc1cccc2nsnc12)c1ccc(-n2c3ccccc3c3ccccc32)cc1
emission maximum (in ClCCl): 538 nm
